According to PubChem BioAssay AID1648 (Sanford-Burnham Center for Chemical Genomics, 2009):
Active and inactive are the calls of the source. No rule for the calls is given here.

target: Serine/threonine-protein kinase mTOR (Homo sapiens) (UniProt P42345); experiment: mTOR FRB domain ligand binding – biophysical, NMR (AID 1648); settings: NMR binding to FRB domain, chemical shift
Sequence (P42345 2015-2114): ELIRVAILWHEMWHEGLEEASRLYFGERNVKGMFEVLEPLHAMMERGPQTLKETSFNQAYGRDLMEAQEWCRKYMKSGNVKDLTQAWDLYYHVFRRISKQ

Row | Compound | Kd
1 | O=[N+]([O-])c1cccc2c1nnn2C(CO)OCCO (centres undefined) | > 4 mM (inactive)
2 | COc1ccc(-c2coc3cc(OC)cc(OC)c3c2=O)cc1 | > 4 mM (inactive)
3 | O=c1c2ccccc2nc2n1CCC2O (centres undefined) | > 4 mM (inactive)
4 | CN(C(N)=O)C1(C)CCS(=O)(=O)C1 (centres undefined) | > 4 mM (inactive)
5 | O=S1(=O)CCC(NC(=S)Nc2ccccc2)C1 (centres undefined) | > 4 mM (inactive)
6 | NCCc1nc2ccccc2[nH]1 | > 4 mM (inactive)
7 | CC1(C)SCC(C(=O)O)N1C=O (centres undefined) | > 4 mM (inactive)
8 | Cc1ccc(C(=O)Nc2ccncc2)o1 | > 4 mM (inactive)
9 | CN(C)C(=O)Nc1ccc2c(c1)nnn2C | > 4 mM (inactive)
10 | Cc1n[nH]c(=S)n(/N=C/c2ccccc2)c1=O | > 4 mM (inactive)
11 | COc1cc(O)c(C(C)=O)c(OC)c1 | > 4 mM (inactive)
12 | O=C(NCc1cccs1)c1ccc2c(c1)OCCO2 | > 4 mM (inactive)
13 | Cc1nn2c(=O)nc3sc4c(c3c2[nH]c1=O)CCCC4 | > 4 mM (inactive)
14 | Nc1cc(=O)[nH]c(=O)n1Cc1ccco1 | > 4 mM (inactive)
15 | NC1=NC(=O)/C(=C/c2ccccc2[N+](=O)[O-])S1 | > 4 mM (inactive)
16 | Cn1c(O)c(C=NCC2CCNCC2)c(=O)n(C)c1=O | > 4 mM (inactive)
17 | Cc1nc(-c2ccccc2)sc1CO | > 4 mM (inactive)
18 | OCC1CCN(c2ncccn2)CC1 | > 4 mM (inactive)
19 | CC(=O)Oc1ccccc1N1C(=O)C=CC1=O | > 4 mM (inactive)
20 | COc1cc2c(cc1OC)[C@@H]1C(=O)c3ccc4c(c3O[C@@H]1CO2)C=CC(C)(C)O4 | > 4 mM (inactive)

Row | Compound | Kd
21 | CC1(C)C(=O)C=C[C@@]2(C)C1C[C@@H](O)[C@]1(C)C2CC[C@@]2(C)[C@H](c3ccoc3)OC(=O)[C@H]3O[C@]321 (some centres undefined) | > 4 mM (inactive)
22 | NS(=O)(=O)c1ccc(N=Cc2ccc[nH]2)cc1 | > 4 mM (inactive)
23 | Oc1ccc(-c2n[nH]c(=S)n2Cc2ccco2)cc1 | > 4 mM (inactive)
24 | CC(CCC(=O)O)[C@H]1CCC2C3C[C@H](O)[C@@H]4C[C@H](O)CC[C@]4(C)C3CC[C@@]21C (some centres undefined) | > 4 mM (inactive)
25 | Cc1ccc(C)n1/N=C1\NC(=O)CS1 | > 4 mM (inactive)
26 | CC(C)=CCc1c2c(c3occ(-c4ccc(O)c(O)c4)c(=O)c3c1O)C=CC(C)(C)O2 | > 4 mM (inactive)
27 | CCOC(=O)c1c(C)nc2ccccn12 | > 4 mM (inactive)
28 | O=C(O)c1cccc2c1OCC2 | > 4 mM (inactive)
29 | CSc1nn(-c2ccccc2)c(N)c1C#N | > 4 mM (inactive)
30 | COc1cnn(-c2ccccc2)c(=O)c1N(C)C | > 4 mM (inactive)
31 | C[C@@H]1O[C@@H](O[C@H]2CC[C@]3(C=O)C4CC[C@]5(C)[C@@H](C6=CC(=O)OC6)CC[C@]5(O)C4CC[C@]3(O)C2)[C@H](O)[C@H](O)[C@H]1O (some centres undefined) | > 4 mM (inactive)
32 | CC(=O)c1c(C)nc(-c2ccc(Cl)cc2Cl)n1O | > 4 mM (inactive)
33 | Cc1sc2nc(SCC(=O)N(C)C)[nH]c(=O)c2c1C | > 4 mM (inactive)
34 | O=C(O[C@@H]1Cc2c(O)cc(O)cc2O[C@@H]1c1ccc(O)c(O)c1)c1cc(O)c(O)c(O)c1 | > 4 mM (inactive)
35 | Cc1cc(NC(=O)c2ccc3c(c2)OCO3)no1 | > 4 mM (inactive)
36 | COc1ccccc1-c1noc(-c2ccncc2)n1 | > 4 mM (inactive)
37 | N#Cc1c[nH]n2c(=O)cc(Cc3ccccc3)nc12 | > 4 mM (inactive)
38 | O=C1CCCCCN1CO | > 4 mM (inactive)
39 | COc1ccc2c(C)cc(=O)oc2c1 | > 4 mM (inactive)
40 | Cc1ncoc1C(=O)Nc1ccccc1C(N)=O | > 4 mM (inactive)

Row | Compound | Kd
41 | CC1=CC2C(C(C)C)CCC(C)(O)C2CC1 (centres undefined) | > 4 mM (inactive)
42 | O=C(NCC1CCCCC1)c1ccco1 | > 4 mM (inactive)
43 | CSc1ccccc1NC(=O)c1ccncc1 | > 4 mM (inactive)
44 | N=Cc1c(O)n(-c2cccc(Cl)c2)c(=O)[nH]c1=O | > 4 mM (inactive)
45 | Nc1ccc(-n2cccc2)cc1 | > 4 mM (inactive)
46 | Clc1ccccc1OCc1nc(-c2ccncc2)no1 | > 4 mM (inactive)
47 | O=c1[nH]cnc2nc[nH]c12 | > 4 mM (inactive)
48 | OCCCc1nc2ccccc2[nH]1 | > 4 mM (inactive)
49 | Cc1nn(-c2ccccc2C(=O)O)c(=O)c2ccccc12 | > 4 mM (inactive)
50 | Nc1ncnc(NCc2cccnc2)c1[N+](=O)[O-] | > 4 mM (inactive)
51 | Cc1nnsc1C(=O)Nc1ccc(C(N)=O)cc1 | > 4 mM (inactive)
52 | O=C1CSC(=S)N1N1C(=O)C2C3C=CC(C3)C2C1=O (centres undefined) | > 4 mM (inactive)
53 | Cc1c(N=CN(C)C)c(=O)n(-c2ccccc2)n1C | > 4 mM (inactive)
54 | O=C(O)c1cc(=O)c2cccc(O)c2[nH]1 | > 4 mM (inactive)
55 | C[N+](C)(C)CC(=O)[O-] | > 4 mM (inactive)
56 | FC(F)(F)c1cc(-c2ccco2)nc(N2CCOCC2)n1 | > 4 mM (inactive)
57 | NCC(=O)c1ccccc1 | > 4 mM (inactive)
58 | COc1cc(O)ccc1C(C)=O | > 4 mM (inactive)
59 | Cc1c(C)[n+](=O)c(-c2cccs2)c(C)n1[O-] | > 4 mM (inactive)
